Entries after “also recorded” stand apart in the source; their conditions may differ. Where two headings read alike, the source gives them in different places.
Tests used:
[1] = system: IL-6 signaling; test: Whole blood assay IL-6 pSTAT3 CD14+; assay type: cell-based
[2] = Metabolic stability in liver microsomes, dog; assay type: in vitro ADME; settings: read-out: intrinsic clearance in liver microsomes (scaled)
[3] = system: CYP2B6; test: CYP induction (mRNA) in human hepatocytes, CYP2B6; assay type: in vitro ADME
[4] = in vivo; settings: dog; for AUC(0-inf): AUC0-∞
[5] = Pivotal 4-week GLP oral toxicity study in rats; settings: rat, 4 weeks; leading number = dose mg/kg/day
Experimental: The 4-week rat study was conducted at dose levels of 0, 10, 50, 100, and 200 mg/kg/day by daily oral administration (gavage). […] The cause of death was not determined for animals that died.

[6] = target: CYP2D6 (Homo sapiens, UniProt P10635); test: CYP inhibition in human liver microsomes, CYP2D6
Chain of CYP2D6 (P10635 whole entry): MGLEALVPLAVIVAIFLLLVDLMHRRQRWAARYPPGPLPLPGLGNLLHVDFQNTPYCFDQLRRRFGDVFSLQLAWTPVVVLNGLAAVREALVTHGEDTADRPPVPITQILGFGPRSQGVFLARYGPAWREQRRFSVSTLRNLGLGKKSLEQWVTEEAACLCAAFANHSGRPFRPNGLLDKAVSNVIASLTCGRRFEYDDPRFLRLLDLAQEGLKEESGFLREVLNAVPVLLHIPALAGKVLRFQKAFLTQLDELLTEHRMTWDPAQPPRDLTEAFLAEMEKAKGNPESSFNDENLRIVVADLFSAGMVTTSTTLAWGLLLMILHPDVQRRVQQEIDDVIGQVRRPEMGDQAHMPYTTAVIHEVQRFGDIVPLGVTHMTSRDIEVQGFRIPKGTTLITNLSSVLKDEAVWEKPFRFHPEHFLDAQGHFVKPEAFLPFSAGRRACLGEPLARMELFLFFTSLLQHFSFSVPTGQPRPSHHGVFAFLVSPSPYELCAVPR

[7] = system: IL-7-induced pSTAT5; test: Ex vivo stimulation assay IL-7 pSTAT5, orally dosed healthy human subjects; settings: oral
[8] = both, beagle, po, 0.5 mg/kg/day

## CC[C@@H]1CN(C(=O)NCC(F)(F)F)C[C@@H]1c1cnc2cnc3[nH]ccc3n12 [Compound 1, (3S,4R)-3-ethyl-4-(3H-imidazo[1,2-a]pyrrolo[2,3-e]pyrazin-8-yl)-N-(2,2,2-trifluoroethyl)pyrrolidine-1-carboxamide]
[1]; read-out: IL-6 (pSTAT3, CD14+)
  IC50: 17 nM
[1]; whole blood, read-out: IC50 IL-6 pSTAT3 CD14+
  IC50: 17 nM
[2]
  CLint scaled at 0.5 μM: < 33.3 mL/min/kg
[3]; 10 μM
  CYP2B6 mRNA expression, % of the response of phenobarbital: 25%
[3]; 1 and 3 μM
  mRNA expression of CYP2B6: did not increase
[4]; [8]
  AUC: 359 ng·h/mL
  AUC at 28 days: 339 ng·h/mL
[4]; both, beagle, po, 3 mg/kg/day
  AUC: 2200 ng·h/mL
  AUC at 28 days: 2140 ng·h/mL
  Cmax: 617 ng/mL
[4]; both, beagle, po, 5 mg/kg/day
  AUC: 4430 ng·h/mL
  AUC at 28 days: 4100 ng·h/mL
  Cmax: 1240 ng/mL
[4]; iv, 1 mg/kg
  Vd: 2.6 L/kg
  clearance: 11 mL/min/kg
  half-life: 186 min
  AUC(0-inf): 1610 ng·h/mL
[4]; po, 1 mg/kg
  half-life: 168 min
  AUC(0-inf): 1240 ng·h/mL
  Cmax: 349 ng/mL
[4]; po, 5 mg/kg
  AUC(0-inf): 5310 ng·h/mL
[5]
  Adverse Findings: ≧100: Mortality
[6]; human liver microsomes
  time-dependent inhibition of CYP2D6: No obvious time-dependent inhibition
[6]; up to 30 μM
  inhibition of CYP2D6: did not inhibit; also recorded: not an inhibitor
[7]
  dose causing the same inhibition of IL-7-induced pSTAT5 as 5 mg tofacitinib: 12 mg

Reference: patent US20150118229A1, “JAK1 SELECTIVE INHIBITOR AND USES THEREOF” (ABBVIE INC., priority 2013, published 2015)
